# From BindingDB's records for doi:10.1021/jm00007a018 (Laboratorios Menarini, 1995)
# Molecular target: Platelet-activating factor receptor (Oryctolagus cuniculus)
# Assay: […] was measured as the IC50 for aggregation of washed rabbit platelets after incubation for 30 min at 37 C.
row,Compound,IC50 [µM]
1,CCCCCCCCCCCCCCCCC(=O)COCC(COP(=O)([O-])OCC[N+](C)(C)C)OC (centres undefined) [2-methoxy-3-(2-oxooctadecyloxy)propyl-2-trimethylammonioethylphosphorate],> 200
2,CCCCCCCCCCCC(CCCCCC)CCCCCCOCC(COP(=O)([O-])OCC[N+](C)(C)C)OC (centres undefined) [2-methoxy-3-(7-hexyloctadecyloxy)propyl-2-trimethylammonioethylphosphorate],> 200
3,CCCCCCCCCCCC(C)CCCCCCOCC(COP(=O)([O-])OCC[N+](C)(C)C)OC (centres undefined) [2-methoxy-3-(7-methyloctadecyloxy)propyl-2-trimethylammonioethylphosphorate],> 200
4,CCCCCCCCC(CCCCCCOCC(COP(=O)([O-])OCC[N+](C)(C)C)OC)c1ccccc1 (centres undefined) [2-methoxy-3-(7-phenylpentadecyloxy)propyl-2-trimethylammonioethylphosphorate],> 200
5,COC(COCCCCCCCCCCC(=O)c1ccccc1)COP(=O)([O-])OCC[N+](C)(C)C (centres undefined) [2-methoxy-3-(11-oxo-11-phenylundecyloxy)propyl-2-trimethylammonioethylphosphorate],> 200
6,COC(COCCCCCCCCCCCCCCCCc1ccccc1)COP(=O)([O-])OCC[N+](C)(C)C (centres undefined) [2-methoxy-3-(16-phenylhexadecyloxy)propyl-2-trimethylammonioethylphosphorate],20
7,COC(COCCCCCCCCCCC(O)c1ccccc1)COP(=O)([O-])OCC[N+](C)(C)C (centres undefined) [3-(11-hydroxy-11-phenylundecyloxy)-2-methoxypropyl-2-trimethylammonioethylphosphorate],> 200
8,CCCCCCC(CCCCCC)CCCCCCCCCCCOCC(COP(=O)([O-])OCC[N+](C)(C)C)OC (centres undefined) [3-(12-hexyloctadecyloxy)-2-methoxypropyl-2-trimethylammonioethylphosphorate],1.5
9,CCCCCCCCCCCC(=O)CCCCCCOCC(COCCCCC[N+](C)(C)C)OC (centres undefined) [{5-[2-Methoxy-3-(7-oxo-octadecyloxy)-propoxy]-pentyl}-trimethyl-ammonium; bromide],> 200
